Our source for the Activity values is ChEMBL document CHEMBL4130424, “Synthesis and biological effect of chrom-4-one derivatives as functional inhibitors of heat shock protein 27” (2017).

SMILES strings stand for the structures. Calls of active or inactive are those of the source. The rule behind the calls is not given here.

For assay [1], the target named is Heat shock protein beta-1 (Homo sapiens) (UniProt P04792). The assay is described as follows: Induction of abnormal HSP27 dimerization in human NCI-H460 cells at 10 uM co-treated with 17-AAG after 24 hrs by Western blot analysis. The format is cell-based. Background: A western blot detects proteins with antibodies after separation by electrophoresis.
Chain of Heat shock protein beta-1 (Homo sapiens) (P04792 whole entry): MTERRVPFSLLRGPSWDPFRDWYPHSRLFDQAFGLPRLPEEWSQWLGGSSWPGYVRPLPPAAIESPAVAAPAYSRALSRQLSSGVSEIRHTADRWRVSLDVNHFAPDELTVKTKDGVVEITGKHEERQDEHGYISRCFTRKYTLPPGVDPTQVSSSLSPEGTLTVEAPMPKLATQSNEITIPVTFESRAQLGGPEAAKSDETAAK
The target is the same in assay [2]. Put plainly: Induction of abnormal HSP27 dimerization in human NCI-H460 cells at 10 uM after 12 hrs by Western blot analysis. In kind it is cell-based.
The target is the same in assay [3]. The assay is described as follows: Induction of abnormal recombinant HSP27 (unknown origin) dimerization after 3 hrs by Western blot analysis.
Assay [4] deals with NCI-H460. Put plainly: Induction of apoptosis in human NCI-H460 cells assessed as increase in cleaved PARP levels at 10 uM after 12 hrs by Western blot analysis. In kind it is functional, cell-based.
Assay [5] concerns NCI-H460. Put plainly: Induction of apoptosis in human NCI-H460 cells assessed as increase in cleaved caspase-7 levels at 10 uM after 12 hrs by Western blot analysis. In kind it is functional, cell-based.
Assay [6] has as its system NCI-H460. The assay is described as follows: Potentiation of 17-AAG-induced antiproliferative activity against human NCI-H460 cells at 10 uM after 24 hrs by EZ-CYTOX cell viability assay. The format is functional, cell-based.
In assay [7] the target is Heat shock protein beta-1 (Homo sapiens) (UniProt P04792). Put plainly: Induction of abnormal HSP27 dimerization in human NCI-H460 cells assessed as potentiation of 17-AAG-induced increase in cleaved PARP levels at 10 uM after 24 hrs by Western blot analysis. The format is cell-based.
The target is the same in assay [8]. The assay is described as follows: Induction of abnormal HSP27 dimerization in human NCI-H460 cells assessed as potentiation of 17-AAG-induced increase in cleaved caspase-7 levels at 10 uM after 24 hrs by Western blot analysis. The format is cell-based.
The test system of assay [9] is NCI-H460. The assay is described as follows: Induction of apoptosis in human NCI-H460 cells assessed as necrotic cells at 10 uM after 24 hrs by Annexin V/propidium iodide double staining-based FACS analysis (reference value: 1.29%). In kind it is functional. In general terms: A flow cytometer gives signals particle by particle.
Assay [10] relates to NCI-H460. The assay is described as follows: Induction of apoptosis in human NCI-H460 cells assessed as late apoptotic cells at 10 uM after 24 hrs by Annexin V/propidium iodide double staining-based FACS analysis (reference value: 3.66%). The format is functional.
Assay [11] has as its system NCI-H460. The assay is described as follows: Induction of apoptosis in human NCI-H460 cells assessed as early apoptotic cells at 10 uM after 24 hrs by Annexin V/propidium iodide double staining-based FACS analysis (reference value: 3.84%). The format is functional.
Assay [12] concerns NCI-H460. The assay is described as follows: Potentiation of 17-AAG-induced apoptosis in human NCI-H460 cells assessed as late apoptotic cells at 10 uM after 24 hrs by Annexin V/propidium iodide double staining-based FACS analysis (reference value: 7.53%). The format is functional.
The test system of assay [13] is NCI-H460. Put plainly: Potentiation of 17-AAG-induced apoptosis in human NCI-H460 cells assessed as early apoptotic cells at 10 uM after 24 hrs by Annexin V/propidium iodide double staining-based FACS analysis (reference value: 17.86%). In kind it is functional.
Assay [14] deals with NCI-H460. The assay is described as follows: Potentiation of 17-AAG-induced apoptosis in human NCI-H460 cells assessed as necrotic cells at 10 uM after 24 hrs by Annexin V/propidium iodide double staining-based FACS analysis (reference value: 1.42%). In kind it is functional.
Assay [15] deals with NCI-H460. Put plainly: Potentiation of 17-AAG-induced antiproliferative activity in HSP27-knockdown human NCI-H460 cells at 10 uM after 24 hrs by EZ-CYTOX cell viability assay. The format is functional, cell-based.
Assay [16] addresses Heat shock protein beta-1 (Homo sapiens) (UniProt P04792). The assay is described as follows: Induction of abnormal HSP27 dimerization in human NCI-H460 cells assessed as potentiation of 17-AAG-induced antiproliferative activity at 10 uM after 24 hrs by EZ-CYTOX cell viability assay. The format is cell-based.
For assay [17] the target is unchanged. The assay is described as follows: Induction of abnormal HSP27 dimerization in human NCI-H460 cells assessed as potentiation of 17-AAG-induced apoptosis by measuring late apoptotic cells at 10 uM after 24 hrs by Annexin V/propidium iodide double staining-based FACS analysis (reference value: 7.53%). The format is cell-based.
The target is the same in assay [18]. The assay is described as follows: Induction of abnormal HSP27 dimerization in human NCI-H460 cells assessed as potentiation of cisplatin-induced antiproliferative activity at 10 uM after 24 hrs by EZ-CYTOX cell viability assay. In kind it is cell-based.
For assay [19] the target is unchanged. The assay is described as follows: Induction of abnormal HSP27 dimerization in human NCI-H460 cells assessed as potentiation of cisplatin-induced increase in cleaved PARP levels at 10 uM after 24 hrs by Western blot analysis. In kind it is cell-based.
For assay [20] the target is unchanged. Put plainly: Induction of abnormal HSP27 dimerization in human NCI-H460 cells assessed as potentiation of cisplatin-induced increase in cleaved caspase-7 levels at 10 uM after 24 hrs by Western blot analysis. In kind it is cell-based.
In assay [21] the test system is NCI-H460. Put plainly: Induction of apoptosis in human NCI-H460 cells assessed as late apoptotic cells at 10 uM after 24 hrs by Annexin V/propidium iodide double staining-based FACS analysis (reference value: 3.92%). The format is functional.
Assay [22] deals with NCI-H460. Put plainly: Induction of apoptosis in human NCI-H460 cells assessed as early apoptotic cells at 10 uM after 24 hrs by Annexin V/propidium iodide double staining-based FACS analysis (reference value: 2.83%). The format is functional.
In assay [23] the test system is NCI-H460. Put plainly: Induction of apoptosis in human NCI-H460 cells assessed as necrotic cells at 10 uM after 24 hrs by Annexin V/propidium iodide double staining-based FACS analysis (reference value: 2.92%). In kind it is functional.
Assay [24] concerns the target Heat shock protein beta-1 (Homo sapiens) (UniProt P04792). The assay is described as follows: Induction of abnormal HSP27 dimerization in human NCI-H460 cells assessed as potentiation of cisplatin-induced apoptosis by measuring late apoptotic cells at 10 uM after 24 hrs by Annexin V/propidium iodide double staining-based FACS analysis (reference value: 3.74%). The format is cell-based.

Assay [25] has the same target. Put plainly: Induction of abnormal HSP27 dimerization in human NCI-H460 cells assessed as potentiation of cisplatin-induced apoptosis by measuring early apoptotic cells at 10 uM after 24 hrs by Annexin V/propidium iodide double staining-based FACS analysis (reference value: 7.49%). In kind it is cell-based.
Assay [26] has the same target. The assay is described as follows: Induction of abnormal HSP27 dimerization in human NCI-H460 cells assessed as potentiation of cisplatin-induced apoptosis by measuring necrotic cells at 10 uM after 24 hrs by Annexin V/propidium iodide double staining-based FACS analysis (reference value: 2.26%). In kind it is cell-based.
Assay [27] shares this target. Put plainly: Induction of abnormal HSP27 dimerization in human NCI-H460 cells assessed as potentiation of 17-AAG-induced apoptosis by measuring early apoptotic cells at 10 uM after 24 hrs by Annexin V/propidium iodide double staining-based FACS analysis (reference value: 17.86%). In kind it is cell-based.
For assay [28] the target is unchanged. The assay is described as follows: Induction of abnormal HSP27 dimerization in human NCI-H460 cells assessed as potentiation of 17-AAG-induced apoptosis by measuring necrotic cells at 10 uM after 24 hrs by Annexin V/propidium iodide double staining-based FACS analysis (reference value: 1.42%). The format is cell-based.
Assay [29] concerns NCI-H460. The assay is described as follows: Potentiation of cisplatin-induced apoptosis in human NCI-H460 cells assessed as late apoptotic cells at 10 uM after 24 hrs by Annexin V/propidium iodide double staining-based FACS analysis (reference value: 3.74%). The format is functional.
In assay [30] the test system is NCI-H460. The assay is described as follows: Potentiation of cisplatin-induced apoptosis in human NCI-H460 cells assessed as early apoptotic cells at 10 uM after 24 hrs by Annexin V/propidium iodide double staining-based FACS analysis (reference value: 7.49%). In kind it is functional.
In assay [31] the test system is NCI-H460. The assay is described as follows: Potentiation of cisplatin-induced apoptosis in human NCI-H460 cells assessed as necrotic cells at 10 uM after 24 hrs by Annexin V/propidium iodide double staining-based FACS analysis (reference value: 2.26%). In kind it is functional.

In the case of `O=c1c2ccccc2oc2cc(OCC3CS3)cc(OCC3CS3)c12` (configuration not stated), the result (in [1]; in assay [2]; in assay [3]; in the assay with NCI-H460 [4]; in the assay with NCI-H460 [5]; in the assay on NCI-H460 [6]) was Active. For the same compound, the outcome (in [7]; in assay [8]; in the assay with NCI-H460 [15]) was Active. The Activity with NCI-H460 [9] is reported as 3.38%; in the assay on NCI-H460 [10], 8.13%; with NCI-H460 [11], 8.67%; in the assay with NCI-H460 [12], 20.69%; with NCI-H460 [13], 21.99%; with NCI-H460 [14] it was 5.18%.
On to `O=c1cc(-c2ccccc2)oc2cc(OCC3CS3)cc(O)c12` (configuration not stated), for which the result in [3] was Active.
As for `Cc1cc(=O)c2c(O)cc(OCC3CS3)cc2o1` (configuration not stated), the outcome (in [1]; in assay [2]; in assay [3]; in the assay on NCI-H460 [4]; with NCI-H460 [5]; in [16]) was Active. The outcome in assay [7], in assay [8], in assay [18], in [19] and in assay [20] was Active. The Activity came to 1.97% with NCI-H460 [9]; 5.9% in the assay on NCI-H460 [10]; 3.47% in the assay on NCI-H460 [11]; 16.5% in assay [17]; 5.21% with NCI-H460 [21]; 4.73% in the assay on NCI-H460 [22]. For the same compound, the Activity amounted to 1.89% in the assay on NCI-H460 [23]; 4.52% in [24]; 9.47% in assay [25]; 2.11% in assay [26]; 18.6% in assay [27]; 3.87% in assay [28]. Further, the outcome in the assay with NCI-H460 [15] was inactive.
As to `O=c1cc(-c2ccccc2)oc2cc(OCC3CS3)cc(OCC3CS3)c12` (configuration not stated), the result (in assay [1]; in [2]; in assay [3]; with NCI-H460 [4]; in the assay with NCI-H460 [5]; in the assay with NCI-H460 [6]) was Active. In addition, the result (in [7]; in [8]; in the assay on NCI-H460 [15]) was Active. Also, the Activity with NCI-H460 [9] turned out to be 11.71%; with NCI-H460 [10], 27.48%; in the assay on NCI-H460 [11], 9.85%; in the assay with NCI-H460 [12] it was 31.53%; in the assay with NCI-H460 [13], 10.78%; with NCI-H460 [14], 10.12%.
As to `O=c1cc(-c2ccccc2)oc2cc(OCC3CO3)cc(OCC3CO3)c12` (configuration not stated), the result in [3] was Active.
Take `Cc1cc(=O)c2c(OCC3CS3)cc(OCC3CS3)cc2o1` (configuration not stated): the outcome (in assay [1]; in [2]; in assay [3]; with NCI-H460 [4]; in the assay on NCI-H460 [5]; in assay [16]) was Active. Also, the result in assay [7], in [8], in assay [18], in assay [19] and in assay [20] was Active. Also, the Activity turned out to be 2.37% in the assay with NCI-H460 [9]; 4.5% in the assay on NCI-H460 [10]; 3.49% in the assay on NCI-H460 [11]; 13% in assay [17]; 3.53% in the assay on NCI-H460 [21]; 6.25% in the assay with NCI-H460 [22]. The Activity with NCI-H460 [23] is 2.67%; in assay [24], 6.44%; in [25] it was 11.1%; in assay [26], 2.91%; in assay [27], 18%; in [28], 5.37%. Further, the result with NCI-H460 [15] was inactive.
Take `O=c1cc(-c2ccccc2)oc2cc(OCC3CO3)cc(O)c12` (configuration not stated): the result in assay [3] was inactive.
`COc1cc(OCC2CS2)c2c(=O)c3ccccc3oc2c1` (configuration not stated): the outcome (in assay [3]; in [7]; in assay [8]; with NCI-H460 [15]) was inactive. For the same compound, the Activity with NCI-H460 [9] amounted to 0.6%; with NCI-H460 [10], 4.04%; in the assay on NCI-H460 [11], 3.42%; with NCI-H460 [12], 6.65%; in the assay with NCI-H460 [13] it was 6.62%; in the assay with NCI-H460 [14] it was 0.68%. Moreover, the Activity in the assay with NCI-H460 [21] is on record as 4.27%; in the assay with NCI-H460 [22], 3.41%; in the assay on NCI-H460 [23], 3.6%; in the assay with NCI-H460 [29] it was 4.81%; in the assay with NCI-H460 [30] it was 7.29%; with NCI-H460 [31] it was 2.45%.
